What was measured:
[1] = tested on: HCV genotype 1a replicon; assay: HCV genotype 1a replicon assay (NS3 protease activity readout); assay type: cell-based, hepatitis C virus; conditions: for Genotype 1a: HCV genotype 1a replicon; for EC50: Hepatitis C virus, read-out: Genotype 1a, HCV genotype 1a replicon
Summary of the method: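 Genotype 1a subgenomic replicon cells (APC89, Huh7.5) were treated with compound dose-responses in G418-free medium, 0.5% DMSO final, for 48 or 72 hours at 37° C. Lysate NS3/4a protease activity measured with 15 μM FRET substrate, 20 min at 37° C (ex 340/em 509 nm); EC50 by 4-parameter fit.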

[2] = molecular target: HCV genotype 1b replicon; assay: HCV genotype 1b replicon assay (Renilla luciferase readout); assay type: cell-based, hepatitis C virus; conditions: for Genotype 1b: HCV genotype 1b replicon; for EC50: Hepatitis C virus, read-out: Genotype 1b
Summary of the method: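 Huh7-derived APC144 subgenomic replicon cells carrying Renilla luciferase–NS3-NS5B, seeded 10,000/well without G418, then treated with compound dose-responses for 48 h at 37 °C (0.5% DMSO final). Luciferase signal fitted by 4-parameter model to EC50, reported as pEC50.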

Compound	Genotype 1a [1]	Genotype 1b [2]	EC50 [1]	EC50 [2]
COC(=O)N[C@H](C(=O)N1C[C@@H](C)C[C@H]1c1nc(-c2ccc(-c3cc(F)c(NC(=O)c4ccc(N5C[C@H](C)N(C(=O)c6c[nH]cn6)C[C@H]5C)nc4)cc3OC(F)(F)F)cc2)c[nH]1)C(C)C [Example 1-14]	D (D represents pEC50>10 (EC50<0.1 nM))	D (D represents pEC50>10 (EC50<0.1 nM))	–	–
COC(=O)N[C@H](C(=O)N1C[C@@H](C)C[C@H]1c1nc(-c2ccc(-c3cc(F)c(NC(=O)c4ccc(N5CCN(C(=O)C(C)(C)C)C[C@H]5C)nc4)cc3OC(F)(F)F)cc2)c[nH]1)C(C)(C)O [Example 13-24]	–	–	< 0.1 nM	< 0.1 nM
COC(=O)NC(C(=O)N1CC(C)CC1c1nc(-c2ccc(-c3cc(Cl)c(NC(=O)c4ccc(N5CCN(C(=O)C6CC6(F)F)CC5C)nc4)cc3C(F)(F)F)cc2)c[nH]1)C(C)C (mixture of isomers) [Example 1-55]	D (D represents pEC50>10 (EC50<0.1 nM))	D (D represents pEC50>10 (EC50<0.1 nM))	–	–
COC(=O)N[C@H](C(=O)N1C[C@@H](C)C[C@H]1c1nc(-c2ccc(-c3cc(Cl)c(NC(=O)c4ccc(N5CCN(C(=O)C(C)(C)C)C[C@H]5C)nc4)cc3OC(F)(F)F)cc2)c[nH]1)C(C)(C)O [Example 13-5]	–	–	< 0.1 nM	< 0.1 nM
CNC(=O)N1C[C@@H](C)N(c2ccc(C(=O)Nc3cc(C(F)(F)F)c(-c4ccc(-c5c[nH]c([C@@H]6C[C@H](C)CN6C(=O)[C@@H](NC(=O)OC)C(C)C)n5)cc4)cc3Cl)cn2)C[C@@H]1C [Example 1-12]	D (D represents pEC50>10 (EC50<0.1 nM))	D (D represents pEC50>10 (EC50<0.1 nM))	–	–
COC(=O)N[C@H](C(=O)N1C[C@@H](OC)C[C@H]1c1nc(-c2ccc(-c3cc(Cl)c(NC(=O)c4ccc(N5C[C@H](C)N(C(=O)[C@]6(C)CCCN6C(=O)OC)C[C@H]5C)nc4)cc3OC(F)(F)F)cc2)c[nH]1)C1CCOCC1 [Example 28-18]	D (D represents pEC50>10 (EC50<0.1 nM))	D (D represents pEC50>10 (EC50<0.1 nM))	–	–
COC(=O)N[C@H](C(=O)N1C[C@@H](OC)C[C@H]1c1nc(-c2ccc(-c3cc(Cl)c(NC(=O)c4ccc(N5CCN(C(=O)[C@H]6CC6(C)C)C[C@H]5C)nc4)cc3OC(F)(F)F)cc2)c[nH]1)C(C)C [Example 27-1]	D (D represents pEC50>10 (EC50<0.1 nM))	D (D represents pEC50>10 (EC50<0.1 nM))	–	–
COC(=O)N[C@H](C(=O)N1C[C@@H](C)C[C@H]1c1nc(-c2ccc(-c3cc(Cl)c(NC(=O)c4ccc(N5CCN(C(=O)NC(C)(C)C)C[C@H]5C)nc4)cc3OC(F)(F)F)cc2)c[nH]1)C(C)C [Example 12-24]	–	–	< 0.1 nM	< 0.1 nM
COC(=O)N[C@H](C(=O)N1C[C@@H](OC)C[C@H]1c1nc(-c2ccc(-c3cc(Cl)c(NC(=O)c4ccc(N5CCN(C(=O)C(C)(C)CO)C[C@H]5C)nc4)cc3OC(F)(F)F)cc2)c(CO)[nH]1)C1CCOCC1 [Example 28-16]	D (D represents pEC50>10 (EC50<0.1 nM))	D (D represents pEC50>10 (EC50<0.1 nM))	–	–
COC(=O)N[C@H](C(=O)N1C[C@@H](OC)C[C@H]1c1nc(-c2ccc(-c3cc(Cl)c(NC(=O)c4ccc(N5CCN(C(=O)C(C)(C)C)C[C@H]5C)nc4)cc3OC(F)(F)F)cc2)c(CO)[nH]1)C1CCOCC1 [Example 28-15]	D (D represents pEC50>10 (EC50<0.1 nM))	D (D represents pEC50>10 (EC50<0.1 nM))	–	–
COC(=O)N[C@H](C(=O)N1C[C@@H](OC)C[C@H]1c1nc(-c2ccc(-c3cc(F)c(NC(=O)c4ccc(N5CCN(C(=O)C(C)(C)CO)C[C@H]5C)nc4)cc3OC(F)(F)F)cc2)c[nH]1)C(C)C [Example 27-6]	D (D represents pEC50>10 (EC50<0.1 nM))	D (D represents pEC50>10 (EC50<0.1 nM))	–	–
COC(=O)N[C@H](C(=O)N1C[C@@H](C)C[C@H]1c1nc(-c2ccc(-c3cc(Cl)c(NC(=O)c4ccc(N5CCN(C(=O)C(C)(C)C)C[C@@H]5C)nc4)cc3OC(F)(F)F)cc2)c[nH]1)C1CCOCC1 [Example 20-4]	D (D represents pEC50>10 (EC50<0.1 nM))	D (D represents pEC50>10 (EC50<0.1 nM))	–	–
COC(=O)N[C@H](C(=O)N1C[C@@H](C)C[C@H]1c1nc(-c2ccc(-c3cc(Cl)c(NC(=O)c4ccc(N5CCN(C(=O)N(C)OC)C[C@H]5C)nc4)cc3OC(F)(F)F)cc2)c[nH]1)C(C)C [Example 12-1]	–	–	< 0.1 nM	< 0.1 nM
COC(=O)N[C@H](C(=O)N1C[C@@H](C)C[C@H]1c1nc(-c2ccc(-c3cc(F)c(NC(=O)c4ccc(N5CCN(C(=O)C(C)(C)C)C[C@H]5C)nc4)cc3Cl)cc2)c[nH]1)C(C)C [Example 5-6]	–	–	0.1 to 1 nM	< 0.1 nM
COC(=O)N[C@H](C(=O)N1C[C@@H](SC)C[C@H]1c1nc(-c2ccc(-c3cc(Cl)c(NC(=O)c4ccc(N5CCN(C(=O)[C@H]6CC6(C)C)C[C@H]5C)nc4)cc3OC(F)(F)F)cc2)c[nH]1)C(C)C [Example 5-4]	–	–	< 0.1 nM	< 0.1 nM

Source: patent US9212168B2 (priority 2011, dated 2015)
